Assay results: patent US11517568B2, “Compounds and methods for treating nematode infections” (The Governing Council of The University of Toronto, priority 2018, dated 2022)
Like-named read-outs stand apart in the source and are kept apart here.

Experiments:
[1] = system: wild type fourth-stage C. elegans larvae (L4s); test: Locomotory defects (coiled and/or paralysis) in wild type fourth-stage C. elegans larvae on solid substrate; format: in vivo, Caenorhabditis elegans; conditions: for Activity (%): percent of animals that show coiled and/or paralysis: 60 μM, after 60 min on solid substrate, L4 C. elegans
Description: A preliminary first round of SAR analyses using analogs of exemplary compound Ia was performed and the analogs' ability to induce locomotory defects in wild type fourth-stage C. elegans larvae (L4s) was tested.
If phenotype is observed, a dose-response analysis is performed.

L3 animals = test: Abnormal locomotory behaviour of L3 animals on solid agar (extended SAR); format: in vivo, Caenorhabditis elegans; conditions: for pest or weed control at 3.75 µM / pest or weed control at 15 µM / pest or weed control at 60 µM: Caenorhabditis elegans
Description: 20 animals were scored after either 1, 6 or 24 hours of exposure to drug (as indicated) per replicate. […] Data are reported as the mean % of animals with abnormal phenotype over 4 independent replicates.

[2] = 3.75 uM, 1 h exposure, L3, mean of 4 replicates
[3] = 3.75 uM, 6 h exposure, L3, mean of 4 replicates
[4] = 3.75 uM, 24 h exposure, L3, mean of 4 replicates
[5] = 15 uM, 1 h exposure, L3, mean of 4 replicates
[6] = 15 uM, 6 h exposure, L3, mean of 4 replicates
[7] = 15 uM, 24 h exposure, L3, mean of 4 replicates
[8] = 60 uM, 1 h exposure, L3, mean of 4 replicates
[9] = 60 uM, 6 h exposure, L3, mean of 4 replicates
[10] = 60 uM, 24 h exposure, L3, mean of 4 replicates
[11] = 3.75 uM, 1 h exposure, L3, mean of 4 replicates, read-out: % any phene 1 h (conc.) 3.75
[12] = 3.75 uM, 6 h exposure, L3, mean of 4 replicates, read-out: % any phene 6 h (conc.) 3.75
[13] = 3.75 uM, 24 h exposure, L3, mean of 4 replicates, read-out: % any phene 24 h (conc.) 3.75
[14] = 15 uM, 6 h exposure, L3, mean of 4 replicates, read-out: % any phene 6 h (conc.) 15
[15] = 15 uM, 24 h exposure, L3, mean of 4 replicates, read-out: % any phene 24 h (conc.) 15
[16] = 60 uM, 1 h exposure, L3, mean of 4 replicates, read-out: % any phene 1 h (conc.) 60
[17] = 60 uM, 6 h exposure, L3, mean of 4 replicates, read-out: % any phene 6 h (conc.) 60
[18] = 60 uM, 24 h exposure, L3, mean of 4 replicates, read-out: % any phene 24 h (conc.) 60
[19] = 1 h, read-out: % any phene 1 h (conc.) 3.75
[20] = 1 h, read-out: % any phene 1 h (conc.) 15
[21] = 1 h, read-out: % any phene 1 h (conc.) 60
[22] = 6 h, read-out: % any phene 6 h (conc.) 3.75
[23] = 6 h, read-out: % any phene 6 h (conc.) 15
[24] = 6 h, read-out: % any phene 6 h (conc.) 60
[25] = 24 h, read-out: % any phene 24 h (conc.) 3.75
[26] = 24 h, read-out: % any phene 24 h (conc.) 15
[27] = 24 h, read-out: % any phene 24 h (conc.) 60
[28] = 15 uM, 1 h exposure, L3, mean of 4 replicates, read-out: % any phene 1 h (conc.) 15

| Structure (SMILES) | Activity (%): percent of animals that show coiled and/or paralysis [1] | pest or weed control at 3.75 µM (L3 animals; [11]) [%] | pest or weed control at 3.75 µM (L3 animals; [12]) [%] | pest or weed control at 3.75 µM (L3 animals; [13]) [%] | pest or weed control at 15 µM (L3 animals; [14]) [%] | pest or weed control at 15 µM (L3 animals; [15]) [%] | pest or weed control at 60 µM (L3 animals; [16]) [%] | pest or weed control at 60 µM (L3 animals; [17]) [%] | pest or weed control at 60 µM (L3 animals; [18]) [%] | pest or weed control at 15 µM (L3 animals; [28]) [%] | other results |
| --- | --- | --- | --- | --- | --- | --- | --- | --- | --- | --- | --- |
| N#Cc1ccc(N2CCN(CC3CCCC3)CC2)cc1 [Ip] | 41% +/− 7.4 | – | – | – | – | – | – | – | – | – | % any phene 1 h (conc.) 3.75 (L3 animals; [2]): 0.8%; % any phene 6 h (conc.) 3.75 (L3 animals; [3]): 0.0%; % any phene 24 h (conc.) 3.75 (L3 animals; [4]): 0.0%; % any phene 1 h (conc.) 15 (L3 animals; [5]): 29.2%; % any phene 6 h (conc.) 15 (L3 animals; [6]): 10.0%; % any phene 24 h (conc.) 15 (L3 animals; [7]): 0.0%; % any phene 1 h (conc.) 60 (L3 animals; [8]): 91.3%; % any phene 6 h (conc.) 60 (L3 animals; [9]): 42.5%; % any phene 24 h (conc.) 60 (L3 animals; [10]): 62.5% |
| O=[N+]([O-])c1ccc(N2CCN(C3CCCCCC3)CC2)cc1 [Ir] | – | 43.3 | 9.2 | 0 | 88.3 | 30 | 100 | 100 | 100 | – | – |
| Fc1ccc(N2CCN(CC3CCCCC3)CC2)cc1 [Ig] | – | – | – | – | – | – | – | – | – | – | pest or weed control at 3.75 µM (L3 animals; [19]): 21.7%; pest or weed control at 15 µM (L3 animals; [20]): 44.2%; pest or weed control at 60 µM (L3 animals; [21]): 95%; pest or weed control at 3.75 µM (L3 animals; [22]): 0.8%; pest or weed control at 15 µM (L3 animals; [23]): 9.2%; pest or weed control at 60 µM (L3 animals; [24]): 79.2%; pest or weed control at 3.75 µM (L3 animals; [25]): 0%; pest or weed control at 15 µM (L3 animals; [26]): 4.2%; pest or weed control at 60 µM (L3 animals; [27]): 66.7% |
| CCC1CCC(N2CCN(c3ccc([N+](=O)[O-])cc3)CC2)CC1 (centres unmarked) [Ic] | 71% +/− 2.1 | 29.2 | 8.3 | 0 | 80.8 | 89.2 | 100 | 100 | 100 | 95.9 | – |
| O=[N+]([O-])c1ccc(N2CCN(Cc3ccccc3)CC2)cc1 [Im] | 0.00% | – | – | – | – | – | – | – | – | – | % any phene 1 h (conc.) 3.75 (L3 animals; [2]): 0.0%; % any phene 6 h (conc.) 3.75 (L3 animals; [3]): 0.0%; % any phene 24 h (conc.) 3.75 (L3 animals; [4]): 0.0%; % any phene 1 h (conc.) 15 (L3 animals; [5]): 7.5%; % any phene 6 h (conc.) 15 (L3 animals; [6]): 3.3%; % any phene 24 h (conc.) 15 (L3 animals; [7]): 0.0%; % any phene 1 h (conc.) 60 (L3 animals; [8]): 44.2%; % any phene 6 h (conc.) 60 (L3 animals; [9]): 30.8%; % any phene 24 h (conc.) 60 (L3 animals; [10]): 0.0% |
| C1CNCCN1 [Piperazine, reference compound] | 0.00% | – | – | – | – | – | – | – | – | – | – |
| N#Cc1ccc(N2CCN(CC3CCCCC3)CC2)cc1 [Ik] | 61% +/− 5.0 | – | – | – | – | – | – | – | – | – | % any phene 1 h (conc.) 3.75 (L3 animals; [2]): 8.3%; % any phene 6 h (conc.) 3.75 (L3 animals; [3]): 15.0%; % any phene 24 h (conc.) 3.75 (L3 animals; [4]): 0.0%; % any phene 1 h (conc.) 15 (L3 animals; [5]): 45.8%; % any phene 6 h (conc.) 15 (L3 animals; [6]): 37.5%; % any phene 24 h (conc.) 15 (L3 animals; [7]): 23.3%; % any phene 1 h (conc.) 60 (L3 animals; [8]): 91.7%; % any phene 6 h (conc.) 60 (L3 animals; [9]): 98.3%; % any phene 24 h (conc.) 60 (L3 animals; [10]): 100.0% |
| O=[N+]([O-])c1ccc(N2CCN(CC3CC3)CC2)cc1 [Iq] | 6% +/− 3.2 | – | – | – | – | – | – | – | – | – | % any phene 1 h (conc.) 3.75 (L3 animals; [2]): 0.0%; % any phene 6 h (conc.) 3.75 (L3 animals; [3]): 5.0%; % any phene 24 h (conc.) 3.75 (L3 animals; [4]): 0.0%; % any phene 1 h (conc.) 15 (L3 animals; [5]): 4.2%; % any phene 6 h (conc.) 15 (L3 animals; [6]): 29.2%; % any phene 24 h (conc.) 15 (L3 animals; [7]): 0.0%; % any phene 1 h (conc.) 60 (L3 animals; [8]): 32.5%; % any phene 6 h (conc.) 60 (L3 animals; [9]): 36.7%; % any phene 24 h (conc.) 60 (L3 animals; [10]): 4.2% |
| c1ccc(N2CCN(C3CCCCCC3)CC2)cc1 [Iff] | – | 24.2 | 6.7 | 0 | 28.3 | 0 | 100 | 51.7 | 0 | 98.3 | – |
| Clc1ccc(N2CCN(C3CCCCCC3)CC2)cc1 [Idd] | – | – | 86.7 | 34.2 | 100 | 98.3 | 100 | 97.5 | 97.5 | 100 | – |
| Clc1ccc(N2CCN(CC3CCCCC3)CC2)cc1 [Ih] | – | – | – | – | – | – | – | – | – | – | pest or weed control at 3.75 µM (L3 animals; [19]): 0%; pest or weed control at 15 µM (L3 animals; [20]): 27.5%; pest or weed control at 60 µM (L3 animals; [21]): 55.7%; pest or weed control at 3.75 µM (L3 animals; [22]): 0%; pest or weed control at 15 µM (L3 animals; [23]): 0%; pest or weed control at 60 µM (L3 animals; [24]): 5.8%; pest or weed control at 3.75 µM (L3 animals; [25]): 0%; pest or weed control at 15 µM (L3 animals; [26]): 0%; pest or weed control at 60 µM (L3 animals; [27]): 10.8% |
| CC1CCC(N2CCN(c3ccccc3)CC2)CC1 (centres unmarked) [Iz] | – | 60.8 | 0 | 0 | 6.7 | 0 | 99.2 | 85 | 14.2 | 96.7 | – |
| CC1CCC(N2CCN(c3ccc(F)cc3)CC2)CC1 (centres unmarked) [Ibb] | – | – | 5 | 0 | 75.8 | 13.3 | 100 | 100 | 100 | – | – |
| CC1CCC(N2CCN(c3ccc([N+](=O)[O-])cc3)CC2)CC1 (centres unmarked) [Ib] | 87% +/− 3.7 | – | – | – | – | – | – | – | – | – | pest or weed control at 3.75 µM (L3 animals; [19]): 3.3%; pest or weed control at 15 µM (L3 animals; [20]): 97.5%; pest or weed control at 60 µM (L3 animals; [21]): 100%; pest or weed control at 3.75 µM (L3 animals; [22]): 0%; pest or weed control at 15 µM (L3 animals; [23]): 93.3%; pest or weed control at 60 µM (L3 animals; [24]): 100%; pest or weed control at 3.75 µM (L3 animals; [25]): 0%; pest or weed control at 15 µM (L3 animals; [26]): 73.3%; pest or weed control at 60 µM (L3 animals; [27]): 100% |
| O=[N+]([O-])c1ccc(N2CCN(CC3CCCC3)CC2)cc1 [If] | 98% +/− 1.9 | – | – | – | – | – | – | – | – | – | rank among analogs for inducing locomotory defects ([1]; SAR comparison with compound Ia analogs): most potent analog to date |
| Fc1ccc(N2CCN(C3CCCCCC3)CC2)cc1 [Iaa] | – | 45 | 6.7 | 0 | 27.5 | 0 | 100 | 97.5 | 69.2 | 89.2 | – |
| c1ccc(N2CCN(CC3CCCCC3)CC2)cc1 [Ii] | 19% +/− 8.1 | – | – | – | – | – | – | – | – | – | % any phene 1 h (conc.) 3.75 (L3 animals; [2]): 16.2%; % any phene 6 h (conc.) 3.75 (L3 animals; [3]): 0.0%; % any phene 24 h (conc.) 3.75 (L3 animals; [4]): 0.0%; % any phene 1 h (conc.) 15 (L3 animals; [5]): 39.2%; % any phene 6 h (conc.) 15 (L3 animals; [6]): 0.8%; % any phene 24 h (conc.) 15 (L3 animals; [7]): 0.0%; % any phene 1 h (conc.) 60 (L3 animals; [8]): 84.2%; % any phene 6 h (conc.) 60 (L3 animals; [9]): 44.2%; % any phene 24 h (conc.) 60 (L3 animals; [10]): 20.5% |
| c1ccc(N2CCN(CC3CCCC3)CC2)cc1 [Ihh] | – | 4.2 | 0 | 0 | 1.7 | 0 | 100 | 53.3 | 5 | 70 | – |
| Fc1ccc(N2CCN(CC3CC=CCC3)CC2)cc1 (centres unmarked) [Iy] | – | 22.5 | 0 | 0 | 35 | 0 | 100 | 99.2 | 58.3 | 77.5 | – |
| Clc1ccc(N2CCN(CC3CC4C=CC3C4)CC2)cc1 (centres unmarked) [Ix] | – | 89.2 | 100 | 66.7 | 100 | 100 | 100 | 100 | 100 | 100 | – |
| c1ccc(N2CCN(C3CCCCCCC3)CC2)cc1 [Icc] | – | 46.7 | 0 | 0 | 0.8 | 0 | 100 | 33.3 | 0 | 93.3 | – |
| O=[N+]([O-])c1ccc(N2CCN(C3CCCCCCC3)CC2)cc1 [Is] | – | 3.3 | 0 | 0 | 15 | 0 | 100 | 62.5 | 13.3 | – | – |
